From patent US20030129629A1, “Methods and compositions for the identification, assessment, prevention, and therapy of human cancers” (Millennium Pharmaceuticals, Inc., priority 2000, published 2003)
Read-outs that look alike come from different tables or passages of the source.

How the values were obtained:
[1] = test system: 60 cancer cell lines (NCI 60 cancer cell line series); assay: NCI-DTP in vitro cancer screen, sulforhodamine B (SRB) growth inhibition, 48 hour exposure; assay type: cell-based, human
Summary of the method: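 Potency is given as mean −log{GI50} from dose–response curves, manually binned into Low, Medium or High sensitivity. Sixty NCI-DTP tumour lines were treated 48 h with a duplicate, five-dose, ten-fold dilution series, and growth read by SRB staining of cell mass.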

[2] = test system: 60 cancer cell lines (NCI 60 cancer cell line series); settings: cited from earlier work

COc1cc([C@@H]2c3cc4c(cc3[C@@H](O[C@@H]3O[C@@H]5CO[C@@H](C)O[C@H]5[C@H](O)[C@H]3O)[C@H]3COC(=O)[C@H]23)OCO4)cc(OC)c1O [Etoposide]
classification of cell line as Low(1), Medium(2), High(3) sensitivity to compound ([1]; Breast BT-549 CL5013): 2 | classification of cell line as Low(1), Medium(2), High(3) sensitivity to compound ([1]; Breast HS-578T CL5006): 3 | classification of cell line as Low(1), Medium(2), High(3) sensitivity to compound ([1]; Breast MCF7(I) CL5001): 2 | classification of cell line as Low(1), Medium(2), High(3) sensitivity to compound ([1]; Breast MCF7/ADRr CL5002): 1 | classification of cell line as Low(1), Medium(2), High(3) sensitivity to compound ([1]; Breast MDA-MB-231 CL5005): 2 | classification of cell line as Low(1), Medium(2), High(3) sensitivity to compound ([1]; Breast MDA-MB-435 CL5011): 2 | classification of cell line as Low(1), Medium(2), High(3) sensitivity to compound ([1]; Breast MDA-N CL5012): 3 | classification of cell line as Low(1), Medium(2), High(3) sensitivity to compound ([1]; Breast T-47D CL5014): 3 | classification of cell line as Low(1), Medium(2), High(3) sensitivity to compound ([1]; CNS SF-268 CL12014): 2 | classification of cell line as Low(1), Medium(2), High(3) sensitivity to compound ([1]; CNS SF-295 CL12015): 2 | classification of cell line as Low(1), Medium(2), High(3) sensitivity to compound ([1]; CNS SF-539 CL12016): 2 | classification of cell line as Low(1), Medium(2), High(3) sensitivity to compound ([1]; CNS SNB-19 CL12002): 2 | classification of cell line as Low(1), Medium(2), High(3) sensitivity to compound ([1]; CNS SNB-75(I) CL12005): 2 | classification of cell line as Low(1), Medium(2), High(3) sensitivity to compound ([1]; CNS U251(I) CL12009): 2 | classification of cell line as Low(1), Medium(2), High(3) sensitivity to compound ([1]; Colon COLO-250 CL4010): 1 | classification of cell line as Low(1), Medium(2), High(3) sensitivity to compound ([1]; Colon HCC-2998 CL4002): 2 | classification of cell line as Low(1), Medium(2), High(3) sensitivity to compound ([1]; Colon HCT-15 CL4015): 2 | classification of cell line as Low(1), Medium(2), High(3) sensitivity to compound ([1]; Colon HCT-116 CL4003): 2 | classification of cell line as Low(1), Medium(2), High(3) sensitivity to compound ([1]; Colon HT29(I) CL4001): 1 | classification of cell line as Low(1), Medium(2), High(3) sensitivity to compound ([1]; Colon KM12 CL4017): 2 | classification of cell line as Low(1), Medium(2), High(3) sensitivity to compound ([1]; Colon SW-620 CL4009): 2 | classification of cell line as Low(1), Medium(2), High(3) sensitivity to compound ([1]; Leukemia CCRF-CEM(I) CL7003): 2 | classification of cell line as Low(1), Medium(2), High(3) sensitivity to compound ([1]; Leukemia HL-60(I) CL7008): 2 | classification of cell line as Low(1), Medium(2), High(3) sensitivity to compound ([1]; Leukemia K562(I) CL7005): 2 | classification of cell line as Low(1), Medium(2), High(3) sensitivity to compound ([1]; Leukemia MOLT-4 CL7006): 3 | classification of cell line as Low(1), Medium(2), High(3) sensitivity to compound ([1]; Leukemia RPMI-8226(I) CL7010): 2 | classification of cell line as Low(1), Medium(2), High(3) sensitivity to compound ([1]; Leukemia SR CL7019): 3 | classification of cell line as Low(1), Medium(2), High(3) sensitivity to compound ([1]; Melanoma LOX IMVI CL10001): 2 | classification of cell line as Low(1), Medium(2), High(3) sensitivity to compound ([1]; Melanoma M14 CL10014): 3 | classification of cell line as Low(1), Medium(2), High(3) sensitivity to compound ([1]; Melanoma MALME-3M CL10002): 2 | classification of cell line as Low(1), Medium(2), High(3) sensitivity to compound ([1]; Melanoma SK-MEL-2 CL10005): 2 | classification of cell line as Low(1), Medium(2), High(3) sensitivity to compound ([1]; Melanoma SK-MEL-28 CL10008): 1 | sensitivity classification Low(1)/Medium(2)/High(3) ([1]; NSCLC NCI-H23(I) CL1001): 2 | sensitivity classification Low(1)/Medium(2)/High(3) ([1]; NSCLC NCI-H332M CL1017): 1 | sensitivity classification Low(1)/Medium(2)/High(3) ([1]; NSCLC NCI-H460 CL1021): 3 | sensitivity classification Low(1)/Medium(2)/High(3) ([1]; NSCLC NCI-H522 CL1003): 2 | sensitivity classification Low(1)/Medium(2)/High(3) ([1]; Ovarian IGROV1 CL6010): 1 | sensitivity classification Low(1)/Medium(2)/High(3) ([1]; Ovarian OVCAR-3 CL6001): 1 | sensitivity classification Low(1)/Medium(2)/High(3) ([1]; Ovarian OVCAR-4 CL6002): 1 | sensitivity classification Low(1)/Medium(2)/High(3) ([1]; Ovarian OVCAR-5 CL6003): 1 | sensitivity classification Low(1)/Medium(2)/High(3) ([1]; Ovarian OVCAR-8 CL6005): 2 | sensitivity classification Low(1)/Medium(2)/High(3) ([1]; Ovarian SK-OV-3 CL6011): 2 | sensitivity classification Low(1)/Medium(2)/High(3) ([1]; Prostate DU-145 CL11003): 3 | sensitivity classification Low(1)/Medium(2)/High(3) ([1]; Prostate PC-3(I) CL11001): 3 | sensitivity classification Low(1)/Medium(2)/High(3) ([1]; Renal 786-0 CL9018): 2 | sensitivity classification Low(1)/Medium(2)/High(3) ([1]; Renal A498 CL9013): 2 | sensitivity classification Low(1)/Medium(2)/High(3) ([1]; Renal ACHN CL9023): 3 | sensitivity classification Low(1)/Medium(2)/High(3) ([1]; Renal CAKI-1 CL9015): 2 | sensitivity classification Low(1)/Medium(2)/High(3) ([1]; Renal RXF-393 CL9016): 2 | sensitivity classification Low(1)/Medium(2)/High(3) ([1]; Renal SN12C CL9008): 2 | sensitivity classification Low(1)/Medium(2)/High(3) ([1]; Renal TK10 CL9024): 2 | sensitivity classification Low(1)/Medium(2)/High(3) ([1]; Renal UO-31 CL9004): 1 | −Log (GI50) ([2]; Melanoma SK-MEL-2 CL10005): 4.5 | −Log (GI50) ([2]; Melanoma SK-MEL-5 CL10007): 5.0 | −Log (GI50) ([2]; Melanoma SK-MEL-28 CL10008): 4.4 | −Log (GI50) ([2]; Melanoma UACC-62 CL10020): 4.9 | −Log (GI50) ([2]; Melanoma UACC-257 CL10021): 4.2 | −Log (GI50) ([2]; NSCLC A549/ATCC CL1004): 5.2 | −Log (GI50) ([2]; NSCLC EKVX CL1008): 4.4 | −Log (GI50) ([2]; NSCLC HOP-62 CL1026): 5.5 | −Log (GI50) ([2]; NSCLC HOP-92 CL1029): 4.8 | −Log (GI50) ([2]; NSCLC NCI-H226 CL1013): 5.2
